The values that follow come from paper PMC6143625, “A high throughput screen for next-generation leads targeting malaria parasite transmission” (Nature Communications, 2018).

A value given as a limit tells only on which side of the number the result lay.

The test system of series [1] is P. falciparum male gamete formation. In words: Pf DGFA add-in format, male readout. The series is classed as cell-based, Plasmodium falciparum. The note with it: for IC50: Plasmodium falciparum, 0h preincubation/add-in. The procedure:
(§1) In profiling mode, the Pf DGFA was performed in 96-well plates[23] in wash-out and add-in formats to aid manual manipulation steps. In the wash-out format, gametocytes were incubated for 24 h with test compounds in round-bottomed 96 well plates and then culture medium replaced three times over 6 h, to remove as much of the compound as possible from the well. […] In add-in format, gametocytes were added directly to flat-bottomed 96-well plates containing test compounds, ookinete medium and anti-Pfs25.

In series [2] the test system is P. falciparum female gamete formation. In words: Pf DGFA add-in format, female readout. The following applies: Plasmodium falciparum; 0h preincubation/add-in. The series is classed as cell-based. On the procedure: as §1
Series [3] concerns P. berghei strain CTRPpGFP early mosquito stage (ookinete) development. In words: P. berghei ookinete development assay (Pb ODA). The series is classed as cell-based, Plasmodium berghei. The following applies: Plasmodium berghei; 24h incubation. On the procedure:
All mouse procedures were performed in accordance with the UK Animals (Scientific Procedures) Act (PPL 70/7185) and approved by the Imperial College Animal Welfare and Ethical Review Body (AWERB). The ability of test compounds to inhibit P. berghei early mosquito stage development was tested in the Ookinete Development Assay[37] with a few exceptions. Anaesthetised 6- to 8-week-old female Tucks Ordinary (TO) mice infected with P. berghei strain CTRPpGFP[38] were rapidly exsanguinated by cardiac puncture and 500 µl of blood diluted in 25 ml of ookinete medium supplemented with 20% foetal bovine serum. Immediately the blood/medium mixture was dispensed by multichannel pipette into 384 well plates containing pre-plated test compounds. 10 µM cycloheximide and DMSO were used as the positive and negative controls, respectively. Plates were stored in the dark in a humidified incubator at 18 °C for 24 h. Ookinete production was imaged by fluorescence microscopy of GFP expression under the ookinete-specific CTRP promoter using a Nikon Ti-E widefield microscope and ×10 objective. Ookinete production was quantified using ICY and percentage inhibition calculated as above with reference to positive and negative controls.

The test system of a further series is HepG2 cells. The experiment in a line: HepG2 toxicity (CellTiter-Glo, parallel to liver stage assay). The series is classed as cell-based, human. The note with it: human, 48 h. On the procedure:
Compound inhibition of P. berghei sporozoite liver infection was assessed in a high-throughput luciferase assay. 1536-well plates (789173-F, Greiner Bio-One) were pre-seeded with 5 µl HepG2-A16-CD81^EGFP cells grown in DMEM (11965–092, Invitrogen) containing 10% FBS (35–011-CV, Corning) and 1× Pen Strep Glutamine (10378–016, Invitrogen). Then, 50 nl of compound in DMSO was dispensed in 12-point serial dilution dose-response format (50 µM to 2.82 × 10^−4 µM), and incubated overnight.A. stephensi mosquitoes infected with P. berghei-ANKA-GFP-Luc-SMCON (Pb-Luc)[41] sporozoites bearing the antifolate-resistance-conferring Toxoplasma gondii dihydrofolate reductase-thymidylate synthase selectable marker, pyR2. After dissection, ~1000 sporozoites in 5 µl screening media (DMEM, 11965–092, Invitrogen; 5% FBS, 35–011-CV, Corning; 5x Pen Strep Glutamine, 10378–016, Invitrogen) were added per well and incubated for 48 h (37 °C, 5% CO2). Bioluminescence was measured using an EnVision microplate reader (Perkin Elmer), following the addition of 2 µl per well of Bright-Glo™ (Promega). Compound toxicity against HepG2 cells was determined in parallel by measuring cellular ATP levels reported by luciferase activity. Methods were similar to the P. berghei liver stage assay, except for the addition of CellTiter-Glo® (Promega) as a detection reagent. DMSO (0.5%) was used as a negative control in both assays, with Atovaquone (5 µM) and Puromycin (10 µM) acting as positive controls in the P. berghei and toxicity assays, respectively.

Series [4] addresses T1, recombinant luciferase (Photinus pyralis) (Photinus pyralis, UniProt P08659).
T1 construct: purchased Promega E1701
The experiment in a line: Recombinant luciferase inhibition assay. It counts as biochemical. The following applies: 1h incubation; read-out: Recombinant luciferase assay IC50. On the procedure:
A counter-screen to the P. berghei liver stage assay was run against recombinant luciferase (Photinus pyralis) to measure the intrinsic bioluminescence inhibition from select compounds. Briefly, compounds were plated in 12-point serial dose response (50–2.82 × 10^−4 µM) in 1536-well opaque-bottom plates (789173-F, Greiner Bio-One). A 20 pM QuantiLum® Recombinant Luciferase (E1701, Promega) containing solution was made in screening media (DMEM, 11965–092, Invitrogen; 5% FBS, 35–011-CV, Corning; 5x Pen Strep Glutamine, 10378–016, Invitrogen), and 8 µl were added to each well. After 1 h incubation at room temperature, 2 µl of Bright-Glo™ (E2610, Promega) were dispensed per well, and bioluminescence was immediately measured using the EnVision microplate reader (PerkinElmer). DMSO (0.5%) and Luciferase Inhibitor-2 (9.8 µM) (119114, MilliporeSigma) served as negative and positive controls, respectively.

Series [5] relates to P. falciparum stage V male gametocytes (male gamete formation). The experiment in a line: P. falciparum dual gamete formation assay (Pf DGFA), male readout (exflagellation), 48 h carry-over format. The series is classed as cell-based, Plasmodium falciparum NF54. The note with it: Plasmodium falciparum, 24h preincubation/carry-over.
The test system of a further series is HepG2 human cells. Set-up: method as in http://dx.doi.org/10.6019/CHEMBL3507680. The following applies: ref http://dx.doi.org/10.6019/CHEMBL3507680; cited from earlier work.

T1 sequence (P08659 whole entry): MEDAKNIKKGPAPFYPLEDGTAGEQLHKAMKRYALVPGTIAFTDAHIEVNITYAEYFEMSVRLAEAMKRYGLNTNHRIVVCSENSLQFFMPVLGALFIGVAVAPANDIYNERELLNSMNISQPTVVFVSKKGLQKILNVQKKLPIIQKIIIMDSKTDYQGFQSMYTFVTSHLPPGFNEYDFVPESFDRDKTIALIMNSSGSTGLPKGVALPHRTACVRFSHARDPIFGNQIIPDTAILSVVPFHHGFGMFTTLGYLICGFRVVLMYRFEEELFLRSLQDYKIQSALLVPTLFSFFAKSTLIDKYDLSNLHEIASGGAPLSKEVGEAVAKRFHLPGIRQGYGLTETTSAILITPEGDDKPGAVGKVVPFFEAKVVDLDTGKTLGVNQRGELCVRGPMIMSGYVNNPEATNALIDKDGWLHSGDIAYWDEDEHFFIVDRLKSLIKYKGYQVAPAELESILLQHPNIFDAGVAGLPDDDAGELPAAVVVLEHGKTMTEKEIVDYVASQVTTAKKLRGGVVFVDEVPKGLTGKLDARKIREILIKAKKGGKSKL

Take `CCc1ccc(C2c3nc[nH]c3CCN2Cc2nccn2CC)nc1` (stereo not drawn) [DDD01254473]: the concentration for half-maximal inhibition (IC50) in series [1] was over 10 µM; in series [2], over 10 µM; in series [3], over 12.5 µM; in series [4], over 50 µM; in series [5] it was over 25 µM. The “Human HepG2 assay TOX50” value in the series with HepG2 cells is over 50.0 µM. Also, the “%Inh HepG2 @10uM” value with HepG2 human cells was 33.1%.
Turning to `CCOc1ccc2ccccc2c1CNCC1CCNCC1.Cl.Cl` [DDD01255740], the IC50 in series [1] was over 10 µM; in series [2] it was over 10 µM; in series [3], over 12.5 µM; in series [4], over 50 µM; in series [5], 4.1 µM. For the same molecule, the “Human HepG2 assay TOX50” value in the series on HepG2 cells is over 50.0 µM. Moreover, the “%Inh HepG2 @10uM” value in the series on HepG2 human cells was 9.2%.
As to `Cc1ccc(-c2cc(C(=O)NCCC3=CCCCC3)[nH]n2)o1` [DDD01255968], the IC50 in series [1] was 0.32 µM; in series [2] it was over 10 µM; in series [3] it was over 12.5 µM; in series [4] it was 17.9 µM; in series [5], 1.17 µM. In series [1] (profiling), the “activity in the add-in format” value is reported as “active”. Moreover, in the series on HepG2 cells, the “Human HepG2 assay TOX50” value was over 50.0 µM. In addition, the “%Inh HepG2 @10uM” value with HepG2 human cells is given as -10.6%.
For `CCn1ncc(Br)c1CN(C)S(=O)(=O)c1ccc(C)cc1` [DDD01259521], the IC50 was over 10 µM in series [1]; over 10 µM in series [2]; over 12.5 µM in series [3]; over 50 µM in series [4]; over 12.5 µM in series [5]. Further, in the series on HepG2 cells, the “Human HepG2 assay TOX50” value is over 50.0 µM. The “%Inh HepG2 @10uM” value in the series with HepG2 human cells is listed as 8.37%.
Regarding `c1cnnc(N2CCCC2CNc2ncnc3sccc23)c1` (stereo not drawn) [DDD01299704], the IC50 in series [1] was over 10 µM; in series [2] it was over 10 µM; in series [3], over 12.5 µM; in series [4] it was over 50 µM; in series [5], over 12.5 µM. In the series with HepG2 cells, the “Human HepG2 assay TOX50” value is over 50.0 µM. Further, in the series on HepG2 human cells, the “%Inh HepG2 @10uM” value is -7.82%.
